Test results reported in ChEMBL document CHEMBL1201862, “PubChem BioAssay data set” (2004).
Active and inactive are the calls of the source.

What was measured:
A-375 [1] = assay: MITF: Counter assay: A375 proliferation Measured in Cell-Based System Using Plate Reader - 2084-03_Inhibitor_Dose_DryPowder_Activity. [Related pubchem assays (depositor defined):AID488944]; assay type: functional; details: Homo sapiens
A-375 [2] = assay: A375 melanoma cell viability reduction, dose response, counter-screen for MITF modulator project, cherry-pick samples, set 2 (AID 540335); assay type: functional, cell-based; details: Homo sapiens
Escherichia coli [3] = assay: microbe, parasite or virus in culture
Escherichia coli [4] = assay: microbe, parasite or virus in culture; remark: listed apart in the source
Mu-type opioid receptor = Mu-type opioid receptor (Homo sapiens, UniProt P35372); assay: (§1) Counterscreen for agonists of heterodimerization of the mu 1 (OPRM1) and delta 1 (OPRD1) opioid receptors: Luminescence-based cell-based high throughput dose response assay to identify agonists of OPRM1 homodimerization.; assay type: functional
Chain of Mu-type opioid receptor (P35372 whole entry): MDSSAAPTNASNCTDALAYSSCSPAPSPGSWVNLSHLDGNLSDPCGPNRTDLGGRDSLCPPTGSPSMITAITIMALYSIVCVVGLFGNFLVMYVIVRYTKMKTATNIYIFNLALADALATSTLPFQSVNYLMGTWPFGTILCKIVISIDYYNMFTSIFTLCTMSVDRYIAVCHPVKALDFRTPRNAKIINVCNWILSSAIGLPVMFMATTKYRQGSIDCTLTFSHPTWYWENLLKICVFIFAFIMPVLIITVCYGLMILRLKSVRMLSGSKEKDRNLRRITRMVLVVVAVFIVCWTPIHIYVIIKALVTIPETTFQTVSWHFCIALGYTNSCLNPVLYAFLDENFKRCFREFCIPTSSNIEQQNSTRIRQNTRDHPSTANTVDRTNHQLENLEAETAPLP

[5] = molecular target: Delta-type opioid receptor (Homo sapiens, UniProt P41143); assay: as §1, with “of OPRD1” for “of OPRM1”, “homodimerization. [Related pubchem assays (depositor defined):AID504326, AID504355, AID504692, AID504904, AID504905]” for “homodimerization.”; assay type: functional
Chain of Delta-type opioid receptor (P41143 whole entry): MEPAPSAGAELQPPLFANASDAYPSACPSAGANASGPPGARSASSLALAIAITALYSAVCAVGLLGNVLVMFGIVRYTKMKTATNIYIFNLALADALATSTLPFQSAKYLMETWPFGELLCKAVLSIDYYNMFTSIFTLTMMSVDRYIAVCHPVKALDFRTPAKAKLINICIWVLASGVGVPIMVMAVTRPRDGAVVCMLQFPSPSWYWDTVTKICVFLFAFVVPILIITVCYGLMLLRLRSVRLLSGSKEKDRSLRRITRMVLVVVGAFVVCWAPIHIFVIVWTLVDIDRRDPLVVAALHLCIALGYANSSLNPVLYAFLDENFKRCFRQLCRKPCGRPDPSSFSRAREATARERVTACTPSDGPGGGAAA

[6] = molecular target: 5-hydroxytryptamine receptor 5A (Homo sapiens, UniProt P47898); assay: Counterscreen for agonists of OPRM1-OPRD1 heterodimerization: luminescence-based cell-based high throughput dose response assay to identify agonists of 5-hydroxytryptamine (serotonin) 5A receptor (HTR5A). [Related pubchem assays (depositor defined):AID504326, AID504355, AID504692, AID504904, AID504905]; assay type: functional
Chain of 5-hydroxytryptamine receptor 5A (P47898 whole entry): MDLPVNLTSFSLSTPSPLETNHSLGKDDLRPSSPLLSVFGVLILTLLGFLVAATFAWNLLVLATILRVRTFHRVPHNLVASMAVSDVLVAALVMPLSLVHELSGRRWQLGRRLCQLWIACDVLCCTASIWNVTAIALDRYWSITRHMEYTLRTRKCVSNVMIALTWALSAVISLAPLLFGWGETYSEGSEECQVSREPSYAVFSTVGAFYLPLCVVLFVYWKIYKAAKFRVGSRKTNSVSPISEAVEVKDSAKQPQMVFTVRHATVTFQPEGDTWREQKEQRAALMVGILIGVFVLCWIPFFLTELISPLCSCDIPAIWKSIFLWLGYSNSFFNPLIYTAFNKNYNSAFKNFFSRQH

[7] = A Cell Based Secondary Assay To Explore Cytotoxicity of Compounds that Sensitize Mycobacterium Tuberculosis to Beta-Lactam Antibiotics.; assay type: functional
[8] = Shn3 3'UTR reporter inhibitors, dose response, cell-based, Clone20 osteoblasts, firefly luciferase, cherry-picked (AID 624132); assay type: functional;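 note: firefly luciferase luminescence from reporter carrying the Shn3 3'UTR in osteoblasts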
[9] = molecular target: T1, Microphthalmia-associated transcription factor (Homo sapiens, UniProt O75030); assay: TRPM1 promoter luciferase signal decrease, dose response, MITF inhibitor project, cell-based, SK-MEL-5, cherry-picked, set 3 (AID 493073); assay type: functional
T1 sequence (O75030 whole entry): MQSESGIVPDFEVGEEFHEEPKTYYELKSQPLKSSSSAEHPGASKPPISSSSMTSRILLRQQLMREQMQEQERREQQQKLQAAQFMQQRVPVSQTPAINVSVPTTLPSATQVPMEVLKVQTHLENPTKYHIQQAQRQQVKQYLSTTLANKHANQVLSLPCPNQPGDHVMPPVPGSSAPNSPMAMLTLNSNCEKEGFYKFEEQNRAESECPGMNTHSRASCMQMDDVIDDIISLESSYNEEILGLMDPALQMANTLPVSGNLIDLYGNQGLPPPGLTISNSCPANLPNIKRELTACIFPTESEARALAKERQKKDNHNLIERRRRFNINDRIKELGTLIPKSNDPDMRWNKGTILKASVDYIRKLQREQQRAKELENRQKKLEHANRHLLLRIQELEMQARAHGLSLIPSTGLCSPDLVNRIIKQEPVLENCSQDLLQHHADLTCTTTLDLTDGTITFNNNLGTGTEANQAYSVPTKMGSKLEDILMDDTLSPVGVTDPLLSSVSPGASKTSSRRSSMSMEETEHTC

[10] = control 3'UTR Renilla luciferase suppression, dose response, counter-screen for Shn3 inhibitor project, cell-based, Clone20-Shn3RL, cherry-picked (AID 624133); assay type: functional
[11] = HepG2 cell cytotoxicity, dose response, cytotoxicity control for Shn3 inhibitor project, CellTiter-Glo, cherry-picked (AID 624134); assay type: functional, cell-based
HeLa = assay: HeLa cell cytotoxicity, dose response, cytotoxicity control, 24 h, cherry-picked samples (AID 504726); assay type: functional, cell-based; details: Homo sapiens;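 note: potency for cytotoxicity as loss of luminescence signal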
HEK293 [12] = assay: cells; details: Homo sapiens
ORF 73 = molecular target: T2, ORF 73 (Human herpesvirus 8, UniProt O40947); assay: inhibitors of C-LANA binding to LBS DNA, dose response, biochemical, fluorescence polarization, cherry-picked samples (AID 504725); design: species or system Human gammaherpesvirus 8;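 note: fluorescence polarization of a labeled DNA duplex reporting LANA DNA binding; potency is for inhibitors that block LANA binding to the DNA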
T2 sequence (O40947 whole entry): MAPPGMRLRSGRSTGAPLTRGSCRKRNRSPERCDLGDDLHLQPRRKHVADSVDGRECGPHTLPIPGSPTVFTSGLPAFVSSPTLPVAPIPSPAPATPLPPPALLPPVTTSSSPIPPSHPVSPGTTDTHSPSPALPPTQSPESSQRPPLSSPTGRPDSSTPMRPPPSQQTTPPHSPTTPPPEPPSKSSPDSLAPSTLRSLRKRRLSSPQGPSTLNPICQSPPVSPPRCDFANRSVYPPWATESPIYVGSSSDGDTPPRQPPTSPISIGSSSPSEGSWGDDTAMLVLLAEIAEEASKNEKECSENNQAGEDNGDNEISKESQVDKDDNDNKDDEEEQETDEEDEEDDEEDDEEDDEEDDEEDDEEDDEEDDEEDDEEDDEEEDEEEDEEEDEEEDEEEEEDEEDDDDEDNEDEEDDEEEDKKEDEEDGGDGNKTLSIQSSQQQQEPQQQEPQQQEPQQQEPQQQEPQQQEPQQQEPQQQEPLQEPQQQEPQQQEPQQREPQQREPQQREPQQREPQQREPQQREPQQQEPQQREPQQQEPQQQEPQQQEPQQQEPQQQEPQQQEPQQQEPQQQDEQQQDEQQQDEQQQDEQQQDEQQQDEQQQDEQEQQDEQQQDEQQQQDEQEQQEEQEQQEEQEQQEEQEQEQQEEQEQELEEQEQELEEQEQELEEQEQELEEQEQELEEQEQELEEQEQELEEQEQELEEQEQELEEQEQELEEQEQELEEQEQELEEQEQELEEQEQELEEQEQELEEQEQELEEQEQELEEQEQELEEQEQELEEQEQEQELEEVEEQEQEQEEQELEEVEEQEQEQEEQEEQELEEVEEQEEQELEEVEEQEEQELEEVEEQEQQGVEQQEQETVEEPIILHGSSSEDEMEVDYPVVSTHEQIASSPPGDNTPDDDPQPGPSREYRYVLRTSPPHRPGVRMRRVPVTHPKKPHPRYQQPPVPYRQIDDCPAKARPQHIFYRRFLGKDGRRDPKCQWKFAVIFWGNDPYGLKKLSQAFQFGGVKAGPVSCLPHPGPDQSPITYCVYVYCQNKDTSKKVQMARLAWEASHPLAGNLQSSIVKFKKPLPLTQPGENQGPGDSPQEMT

HEK293 [13] = assay: cells; details: Homo sapiens; remark: listed apart in the source
Cytochrome P450 2D6 = Cytochrome P450 2D6 (Homo sapiens, UniProt P10635);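 note: CYP2D6 member of a cytochrome P450 panel assay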
Chain of Cytochrome P450 2D6 (P10635 whole entry): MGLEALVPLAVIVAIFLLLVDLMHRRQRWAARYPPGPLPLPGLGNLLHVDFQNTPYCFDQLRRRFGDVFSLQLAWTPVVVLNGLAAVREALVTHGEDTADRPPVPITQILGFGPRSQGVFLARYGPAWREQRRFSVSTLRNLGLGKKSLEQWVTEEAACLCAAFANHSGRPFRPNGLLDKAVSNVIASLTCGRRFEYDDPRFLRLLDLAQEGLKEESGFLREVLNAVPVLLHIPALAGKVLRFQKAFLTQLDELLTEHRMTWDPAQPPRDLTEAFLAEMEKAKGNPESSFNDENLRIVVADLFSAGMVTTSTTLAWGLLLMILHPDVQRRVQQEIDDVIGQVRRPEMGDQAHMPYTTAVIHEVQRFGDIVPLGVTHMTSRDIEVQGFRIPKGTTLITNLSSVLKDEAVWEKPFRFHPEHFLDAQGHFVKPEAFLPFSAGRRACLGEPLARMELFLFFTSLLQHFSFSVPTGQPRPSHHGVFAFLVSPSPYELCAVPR

Compound: CC(C)(CO)NC(=O)c1ccc2nc(Cc3cccc(Cl)c3)oc2c1
- AC50 (A-375 [1]): > 35 µM (active)
- AC50 (A-375 [2]): > 35 µM (active)

Compound: Cc1nc(NS(=O)(=O)c2ccccc2)sc1NC(=O)Nc1ccc(Cl)cc1
- AC50 (Escherichia coli [3]): 27 µM (active)
- AC50 (Escherichia coli [4]): > 380 µM (inactive)

Compound: CCOC(=O)c1c(C)[nH]c(C(=O)OCC(O)=C(C#N)c2nc3ccccc3[nH]2)c1C
- EC50 (Mu-type opioid receptor): > 92.5 µM (inactive)
- EC50 [5]: > 92.5 µM (inactive)
- EC50 [6]: > 92.5 µM (inactive)

Compound: O=C(Nc1ccc2nc3n(c(=O)c2c1)CCCC3)c1cc([N+](=O)[O-])ccc1F
- CC50 [7]: 15.1 µM (active)
- AC50 (A-375 [1]): > 35 µM (active)
- AC50 [8]: 0.361 µM (active)
- AC50 (A-375 [2]): > 35 µM (active)
- AC50 [9]: 11.5 µM (active)
- AC50 [10]: 21.8 µM (active)
- AC50 [11]: 39.2 µM (active)

Compound: CC(C)(C)n1nnnc1C(c1cccnc1)N(Cc1ccccc1)Cc1ccco1 (centres undefined)
- AC50 (HeLa): 75.8 µM (active)
- EC50 (HEK293 [12]): > 59.6 µM (inactive)
- AC50 (ORF 73): 0.592 µM (active)
- EC50 (HEK293 [13]): > 59.6 µM (inactive)
- AC50 (Cytochrome P450 2D6): 31.6 µM (inconclusive)
